Here are results for 1 compound from patent US20170143647A1, “INTESTINAL FLORA IMPROVING COMPOSITION CONTAINING ASTAXANTHIN AND ITS USE” (THE DOSHISHA, priority 2013, published 2017).

For data set [1], the system named is Clostridium coccoides group. The data set is described as follows: Real-time PCR of fecal DNA, Clostridium coccoides group. It counts as in vivo, ICR mice. How it is done: (§1) A change in intestinal flora when a high-fat diet was fed to mice, and the effect of astaxanthin on intestinal flora were determined using a real-time PCR method.
(§2) The test substance (astaxanthin) was added to an ordinary diet (“Labo MR Stock” manufactured by Nosan Corporation (Nishi-ku, Yokohama)) and a high-fat diet (“HFD-60” Oriental Yeast Co., Ltd. (Itabashi-ku, Tokyo)) so that the content thereof was 0.02%.
(§3) A commercially-available product “AstaReal Oil 50F” (manufactured by Fuji Chemical Industries Co., Ltd.) was used as astaxanthin.
(§4) Twenty 4-week-old ICR mice were respectively kept in different cages, and habituated for 1 week.
(§5) After completion of habituation, the weight of each mouse was measured, and the mice were divided into an ordinary diet group (group C), an ordinary diet+astaxanthin group (group CA), a high-fat diet group (group H), and a high-fat diet+astaxanthin group (group HA) (five mice per group). […]
(§6) The DNA solution was 100-fold diluted (Lactobacillus, Streptococcus, Clostridium coccoides, and Clostridium leptum), and the final concentration was adjusted to […] (other targets). […] The primer sequence was analyzed using the method of Matsuki et al. or Endo et al. […]
(§7) Regarding a comparison as to the presence or absence of astaxanthin, the bacterial count change ratio was analyzed by Mann-Whitney's U test (one-sided test).
For orientation: Quantitative PCR measures a nucleic acid by following its amplification.

Data set [2] has as its system intestinal flora. Put plainly: Effect of astaxanthin on intestinal flora of mice fed a high-fat diet (overall). The data set is classed as in vivo. To be noted: intake of astaxanthin, high-fat diet fed to a mouse. How it is done: A change in intestinal flora when a high-fat diet was fed to mice, and the effect of astaxanthin on intestinal flora were determined using a real-time PCR method. The test substance (astaxanthin) was added to an ordinary diet (“Labo MR Stock” manufactured by Nosan Corporation (Nishi-ku, Yokohama)) and a high-fat diet (“HFD-60” Oriental Yeast Co., Ltd. (Itabashi-ku, Tokyo)) so that the content thereof was 0.02%. A commercially-available product “[…] Oil […]” (manufactured by Fuji Chemical Industries Co., Ltd.) was used as astaxanthin. Twenty 4-week-old ICR mice were respectively kept in different cages, and habituated for 1 week. After completion of habituation, the weight of each mouse was measured, and the mice were divided into an ordinary diet group (group C), an ordinary diet+astaxanthin group (group CA), a high-fat diet group (group H), and a high-fat diet+astaxanthin group (group HA) (five mice per group). The DNA solution was 100-fold diluted (Lactobacillus, Streptococcus, Clostridium coccoides, and Clostridium leptum), and the final concentration was adjusted to […] (other targets). […] The primer sequence was analyzed using the method of Matsuki et al. or Endo et al. The real-time PCR assay was performed on Bacteroides, Bifidobacterium (bifidobacteria), Prevotella, Lactobacillus, Streptococcus, Clostridium coccoides, and Clostridium leptum.

Data set [3] relates to Streptococcus group (lactic acid bacteria). Put plainly: Real-time PCR of fecal DNA, Streptococcus group. It counts as in vivo, ICR mice. How it is done:
as §1, §2, §3, §4, §5, §6, §7

Data set [4] is described as follows: Change in body weight of mice fed ordinary or high-fat diet with or without astaxanthin. The data set is classed as in vivo, ICR mice. To be noted: 0.02% astaxanthin in ordinary or high-fat diet, weight measured once a week. The procedure: as §2, §3, §4
(§8) After completion of habituation, the weight of each mouse was measured, and the mice were divided into an ordinary diet group (group C), an ordinary diet+astaxanthin group (group CA), a high-fat diet group (group H), and a high-fat diet+astaxanthin group (group HA) (five mice per group).
The diet was fed to each group from Day 1, and the weight of each mouse was measured once a week.
The ordinary diet was fed once a week, and the high-fat diet was fed every other day (the high-fat diet was returned to room temperature on the day before the feeding).
The mean value of each group was analyzed by Tukey's multiple comparison test.

The conditions of data set [5]: eight-week treatment; cited from earlier work.
Data set [6] relates to Lactobacillus group (lactic acid bacteria). Put plainly: Real-time PCR of fecal DNA, Lactobacillus group. It counts as in vivo, ICR mice. How it is done: as §1, §2, §3, §4, §5, §6, §7
For data set [7] the following is noted: taken orally; cited from earlier work.
The test system of data set [8] is bacteria that belong to the genus Bacteroides. Put plainly: Real-time PCR of fecal DNA, genus Bacteroides. To be noted: group HA (high-fat diet + astaxanthin), Day 14, FIG. 9. It counts as in vivo, ICR mice. How it is done:
as §1, §2, §3, §4, §8
(§9) The feces of the mice were collected over 24 hours on the final day of habituation (Day 0). […]
as §6
(§10) The mean value of each group was analyzed by Tukey's multiple comparison test. […]

Data set [9] has as its system Clostridium leptum group. The data set is described as follows: Real-time PCR of fecal DNA, Clostridium leptum group. The data set is classed as in vivo, ICR mice. To be noted: group HA vs group H. The procedure:
as §1, §2, §3, §4, §8, §9, §6, §10

Molecules are shown by their SMILES. Entries after “also recorded” stand apart in the source; their conditions may differ.

As for `CC1=C(/C=C/C(C)=C/C=C/C(C)=C/C=C/C=C(C)/C=C/C=C(C)/C=C/C2=C(C)C(=O)C(O)CC2(C)C)C(C)(C)CC(O)C1=O` (stereo not drawn) [astaxanthin, 3,3′-dihydroxy-β,β-carotene-4,4′-dione], the “growth of the Clostridium coccoides group” value in [1] (group H vs HA, Day 14 and Day 28, FIG. 7) is “suppressed the growth”. In addition, in data set [1] (high-fat diet, addition of astaxanthin, p=0.029), the “rate of increase in the bacterial count of the Clostridium coccoides group” value is “decreased”. For the same compound, the “effect on intestinal flora” value in [2] is reported as “improves intestinal flora; also recorded: controls the disorder of intestinal flora”. The “rate of increase in bacterial count of the Streptococcus group, between the high-fat diet groups” value in data set [3] (group H vs HA, p=0.044) was “significant difference”. Also, the “bacterial count of the Streptococcus group” value in data set [3] (group HA (high-fat diet + astaxanthin), Day 28) was “comparable to those of the ordinary diet group; also recorded: increased”. In [4], the “change in body weight, groups fed astaxanthin (CA, HA) vs groups not fed astaxanthin (C, H)” value is reported as “No significant difference”. Further, in [5], the “efficacy reported in Non-Patent Literature 1” value is “enhances the antioxidant potential, decreases blood pressure, and improves constipation and a climacteric complaint”. The “rate of increase in the bacterial count of the Lactobacillus group” value in data set [6] (addition of 0.02% astaxanthin to diet, p=0.031) is “increased”. For the same compound, the “bacterial count of the Lactobacillus group” value in [6] (group C vs CA and group H vs HA, FIG. 4) is “increased”. Besides, the “astaxanthin absorbed in the small intestine” value in data set [7] is listed as “about 5%”. Further, the “bacterial count of bacteria that belong to the genus Bacteroides” value in data set [8] is “did not show such a temporary increase; also recorded: suppressed a temporary increase; also recorded: did not show a significant increase”. In addition, the “bacterial count of the Clostridium leptum group” value in data set [9] (Day 14, p<0.001) is listed as “temporary increase”; in data set [9] (Day 28), “no significant difference”.
